How the values were obtained:
GUMC-403 [1] = assay: viability at highest tested concentration (max response) relative to DMSO (% of DMSO control); higher = less cytotoxic; conditions: library / dose series: MIPE library, 11-point 1:3 dilution, 48 h
Procedure, shortened: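 This value is viability at the highest tested concentration relative to vehicle control. GUMC-403 papilloma cells from a patient, grown by conditional reprogramming, were plated at 700/well in 1536-well plates and given 23 nL of compound by pin tool for 48 h. CellTiter-Glo luminescence on a ViewLux was normalised with vehicle wells at 100% and empty wells at 0%.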

GUMC-403 [2] = assay: AC50 for reduction of cell viability; higher = less potent; conditions: 48 h
[3] = library / dose series: MIPE library, 11-point 1:3 dilution
[4] = library / dose series: NPC library, 8-point 1:5 dilution

Compound | AC50 for reduction of cell viability (GUMC-403 [2]; [4]) [µM] | further results
CC[C@@H]1C(=O)N(C)c2cnc(Nc3ccc(C(=O)NC4CCC(N5CCN(CC6CC6)CC5)CC4)cc3OC)nc2N1C(C)C (stereo not given in full) | – | viability (GUMC-403 [1]; top concentration 46.1 µM): 6.26; AC50 for reduction of cell viability (GUMC-403 [2]; [3]): 20.9 µM
CC1=C(/C=C/C(C)=C/C=C/C(C)=C/C(=O)Nc2ccc(O)cc2)C(C)(C)CCC1 | – | viability (GUMC-403 [1]; top concentration 92.2 µM): 4.3; AC50 for reduction of cell viability (GUMC-403 [2]; [3]): 48.1 µM
COC1=CC(=CC(=C1)C2=CC=C3N=CC\4=C(N(C(=O)\C=C4)C5=CC(=C(C=C5)N6CCNCC6)C(F)(F)F)C3=C2)OC | – | viability (GUMC-403 [1]; top concentration 46.1 µM): 28.5; AC50 for reduction of cell viability (GUMC-403 [2]; [3]): 16.6 µM
C#Cc1cccc(Nc2ncnc3cc(OCCOC)c(OCCOC)cc23)c1 | 0.106 | –
CC(=O)N1CCN(c2ccc(OCc3nn(C)c(C)c3-c3cccc4c(CCCOc5cccc6ccccc56)c(C(=O)O)n(Cc5cccnc5)c34)cc2)CC1 | – | viability (GUMC-403 [1]; top concentration 46.1 µM): 3.86; AC50 for reduction of cell viability (GUMC-403 [2]; [3]): 7.43 µM
CC[P](CC)(CC)=[Au][S][C@@H]1O[C@H](COC(C)=O)[C@@H](OC(C)=O)[C@H](OC(C)=O)[C@H]1OC(C)=O | – | AC50 for reduction of cell viability (GUMC-403 [2]; [3]): 9.35 µM
Cc1nc(Nc2ncc(C(=O)Nc3c(C)cccc3Cl)s2)cc(N2CCN(CCO)CC2)n1 | 0.0841 | –
CN(C)c1ccc2nc3ccc(N(C)C)cc3[s+]c2c1.[Cl-] | 26.6 | –
CO[C@@]12[C@H](COC(N)=O)C3=C(C(=O)C(C)=C(N)C3=O)N1C[C@@H]1N[C@@H]12 | 16.8 | –
O=C1NCCN1CCN1CCC(c2cn(-c3ccc(F)cc3)c3ccc(Cl)cc23)CC1 | 2.66 | –
CCN(CC)CCNc1ccc(CO)c2sc3ccccc3c(=O)c12 | 26.6 | –
CC[n+]1c(-c2ccccc2)c2cc(N)ccc2c2ccc(N)cc21.[Br-] | 9.44 | –
C[n+]1cc2c3c(ccc2c2ccc4cc5c(cc4c21)OCO5)OCO3 | 1.3 | –
CCOC(=O)[C@@](C)(N)Cc1ccc(O)c(O)c1.Cl | 6.68 | –
COc1cc2ncnc(Nc3ccc(F)c(Cl)c3)c2cc1OCCCN1CCOCC1 | 1.19 | –
C[C@@H]1O[C@@H](O[C@@H]2C=C3CC[C@@H]4[C@H](CC[C@]5(C)[C@@H](c6ccc(=O)oc6)CC[C@]45O)[C@@]3(C)CC2)[C@H](O)[C@H](O)[C@H]1O | 0.0119 | –
CCCCCCCCCCCCCCCC[N+](C)(C)C.[Br-] | 21.1 | –
C[C@H]1O[C@@H](O[C@H]2[C@@H](O)C[C@H](O[C@H]3[C@@H](O)C[C@H](O[C@H]4CC[C@@]5(C)[C@H](CC[C@@H]6[C@@H]5CC[C@]5(C)[C@@H](C7=CC(=O)OC7)CC[C@]65O)C4)O[C@@H]3C)O[C@@H]2C)C[C@H](O)[C@@H]1O | 0.237 | –
COc1cccc2c1C(=O)c1c(O)c3c(c(O)c1C2=O)C[C@@](O)(C(=O)CO)C[C@@H]3O[C@H]1C[C@H](N)[C@H](O)[C@H](C)O1.Cl | 11.9 | –
CCN(CC)CCCC(C)Nc1c2ccc(Cl)cc2nc2ccc(OC)cc12.Cl.Cl.O.O (stereo not given) | 21.1 | –
Cc1cc2nc3ccc(N(C)C)cc3[s+]c2cc1N.[Cl-] | 18.8 | –

Compound | AC50 for reduction of cell viability (GUMC-403 [2]; [4]) [µM] | further results
C[C@@H]1O[C@@H](O[C@H]2C[C@@H](O)[C@]3(CO)[C@H]4[C@H](O)C[C@]5(C)[C@@H](C6=CC(=O)OC6)CC[C@]5(O)[C@@H]4CC[C@]3(O)C2)[C@H](O)[C@H](O)[C@H]1O | 0.075 | –
CCCCCCCCCCCC[N+](C)(C)CCOc1ccccc1.[Br-] | 26.6 | –
COc1cccc2c1C(=O)c1c(O)c3c(c(O)c1C2=O)C[C@@](O)(C(C)=O)C[C@@H]3O[C@H]1C[C@H](N)[C@H](O)[C@H](C)O1 | 2.66 | –
CC(C)C[C@H](NC(=O)[C@H](CCc1ccccc1)NC(=O)CN1CCOCC1)C(=O)N[C@@H](Cc1ccccc1)C(=O)N[C@@H](CC(C)C)C(=O)[C@@]1(C)CO1 | 1.19 | –
C/C(C)=C\CNc3ncnc1c3ncn1[C@@H]2O[C@H](CO)[C@@H](O)[C@H]2O | 9.44 | –
Cc1cc(OCCOCC[N+](C)(C)Cc2ccccc2)ccc1C(C)(C)CC(C)(C)C.[Cl-] | 23.7 | –
O=c1[nH]c2ccccc2n1C1CCN(CCCC(c2ccc(F)cc2)c2ccc(F)cc2)CC1 | 2.66 | –
CCCCCCCCCCCCCC[N+](C)(C)C.[Br-] | 26.6 | –
CCN1C(=CC=Cc2ccc3ccccc3[n+]2CC)C=Cc2ccccc21.[I-] | 2.66 | –
COc1cccc2c1C(=O)c1c(O)c3c(c(O)c1C2=O)C[C@@](O)(C(=O)CO)CC3OC1CC(N2CCOC(OC)C2)C(O)C(C)O1 (stereo not given in full) | 0.0211 | –
CC[C@H](O)C(C[C@H](C)N(C)C)(c1ccccc1)c1ccccc1.Cl | 44.1 | –
CN(C)C(=S)SC(=S)N(C)C | 5.31 | –
CCCCC(CC)CNC(=N)NC(=N)NCCCCCCNC(=N)NC(=N)NCC(CC)CCCC.Cl.Cl (stereo not given) | 2.66 | –
C=C[C@@]1(C)CC(=O)[C@]2(O)[C@@]3(C)[C@@H](O)CCC(C)(C)[C@@H]3[C@H](O)[C@H](OC(C)=O)[C@@]2(C)O1 | 1.68 | –
C[C@@]12C(=O)OC(=O)[C@]1(C)C1CCC2O1 | 3.35 | –
C[C@H]1O[C@@H](O[C@H]2CC[C@@]3(C)[C@H](CC[C@@H]4[C@@H]3C[C@@H](O)[C@]3(C)[C@@H](C5=CC(=O)OC5)CC[C@]43O)C2)C[C@H](O)[C@@H]1O[C@H]1C[C@H](O)[C@H](O[C@H]2C[C@H](O)[C@H](O[C@@H]3O[C@H](CO)[C@@H](O)[C@H](O)[C@H]3O)[C@@H](C)O2)[C@@H](C)O1 | 0.106 | –
CN(C)C(=S)SSC(=S)N(C)C | 18.8 | –
CC(=O)Oc1ccc(C2(c3ccc(OC(C)=O)cc3)C(=O)Nc3ccccc32)cc1 | 0.841 | –
Oc1c(Cl)cc(Cl)c(Cl)c1Cc1c(O)c(Cl)cc(Cl)c1Cl | 16.8 | –
CC(O)C(=O)O.CCOc1ccc2nc3cc(N)ccc3c(N)c2c1.O | 18.8 | –

From the supplement of paper PMC6723410
